According to patent US20230142565A1, “MICROBIOCIDAL QUINOLINE DIHYDRO-(THIAZINE)OXAZINE DERIVATIVES” (SYNGENTA CROP PROTECTION AG, priority 2020, published 2023):

Key:
[1] = system: Monographella nivalis (Microdochium nivale); assay: Monographella nivalis (Microdochium nivale) / liquid culture (foot rot cereals); type: cell-based; conditions: inhibition of growth determined photometrically 4-5 days after application, compared to untreated control
[2] = system: Botryotinia fuckeliana (Botrytis cinerea); assay: Botryotinia fuckeliana (Botrytis cinerea) / liquid culture (gray mould); type: cell-based; conditions: inhibition of growth determined photometrically 3-4 days after application, compared to untreated control
Procedure: Botryotinia fuckeliana (Botrytis cinerea)/Liquid Culture (Gray Mould) Conidia of the fungus from cryogenic storage are directly mixed into nutrient broth (Vogels broth). After placing a (DMSO) solution of test compound into a microtiter plate (96-well format), the nutrient broth containing the fungal spores is added. The test plates are incubated at 24° C. and the inhibition of growth is determined photometrically 3-4 days after application.

Fusarium culmorum = assay: microbe, parasite or virus in culture; type: cell-based; conditions: read-out: control of Fusarium culmorum
[3] = system: Mycosphaerella graminicola (Septoria tritici); assay: Mycosphaerella graminicola (Septoria tritici) / liquid culture (Septoria blotch); type: cell-based; conditions: Zymoseptoria tritici, inhibition of growth determined photometrically 4-5 days after application, compared to untreated control

Row | Structure (SMILES) | inhibition of growth at 20 ppm [1] [%] | inhibition of growth at 20 ppm [2] [%] | inhibition of growth at 20 ppm (Fusarium culmorum) [%] | inhibition of growth at 6 ppm [3] [%] | melting point [°C]
1 | CC1(C)CC(Cc2ccccn2)N=C(c2cnc3c(F)c(F)ccc3c2)S1 (stereo not drawn) [E.01, 2-(7,8-difluoro-3-quinolyl)-6,6-dimethyl-4-(2-pyridylmethyl)-4,5-dihydro-1,3-thiazine] | ≥ 80 | ≥ 80 | ≥ 80 | – | –
2 | CC1(C)CC(Cc2cccc(F)n2)N=C(c2cnc3c(F)c(F)ccc3c2)S1 (stereo not drawn) [E.02, 2-(7,8-difluoro-3-quinolyl)-4-[(6-fluoro-2-pyridyl)methyl]-6,6-dimethyl-4,5-dihydro-1,3-thiazine] | ≥ 80 | ≥ 80 | ≥ 80 | ≥ 80 | –
3 | CC1(C)CC(Cc2ccccn2)N=C(c2cnc3c(F)c(F)ccc3c2)O1 (stereo not drawn) [E.03, 2-(7,8-difluoro-3-quinolyl)-6,6-dimethyl-4-(2-pyridylmethyl)-4,5-dihydro-1,3-oxazine] | ≥ 80 | ≥ 80 | – | – | 120 to 123
4 | CC1(C)CC(Cc2cccc(F)n2)N=C(c2cnc3c(F)c(F)ccc3c2)O1 (stereo not drawn) [E.04, 2-(7,8-difluoro-3-quinolyl)-4-[(6-fluoro-2-pyridyl)methyl]-6,6-dimethyl-4,5-dihydro-1,3-oxazine] | ≥ 80 | ≥ 80 | ≥ 80 | – | 129 to 131
5 | CC1(C)CC(Cc2cnccn2)N=C(c2cnc3c(F)c(F)ccc3c2)S1 (stereo not drawn) [E.05, 2-(7,8-difluoro-3-quinolyl)-6,6-dimethyl-4-(pyrazin-2-ylmethyl)-4,5-dihydro-1,3-thiazine] | ≥ 80 | ≥ 80 | – | – | –
6 | CC1(C)CC(Cc2cccnc2)N=C(c2cnc3c(F)c(F)ccc3c2)S1 (stereo not drawn) [E.06, 2-(7,8-difluoro-3-quinolyl)-6,6-dimethyl-4-(3-pyridylmethyl)-4,5-dihydro-1,3-thiazine] | ≥ 80 | ≥ 80 | ≥ 80 | – | –
7 | CC1(C)CC(Cc2ccsc2)N=C(c2cnc3c(F)c(F)ccc3c2)S1 (stereo not drawn) [E.07, 2-(7,8-difluoro-3-quinoyl)-6,6-dimethyl-4-(3-thienylmethyl)-4,5-dihydro-1,3-thiazine] | ≥ 80 | ≥ 80 | ≥ 80 | – | –
8 | CC1(C)CC(Cc2ccc(Cl)nc2)N=C(c2cnc3c(F)c(F)ccc3c2)O1 (stereo not drawn) [E.09, 4-[(6-chloro-3-pyridyl)methyl]-2-(7,8-difluoro-3-quinolyl)-6,6-dimethyl-4,6-dihydro-1,3-oxazine] | ≥ 80 | ≥ 80 | – | ≥ 80 | –
9 | CC1(C)CC(Cn2cc(Cl)cn2)N=C(c2cnc3c(F)c(F)ccc3c2)S1 (stereo not drawn) [E.10, 4-[(4-chloropyrazol-1-yl)methyl]-2-(7,8-difluoro-3-quinolyl)-6,6-dimethyl-4,5-dihydro-1,3-thiazine] | ≥ 80 | ≥ 80 | – | ≥ 80 | –
10 | CC1(C)CC(Cn2ccc(Cl)n2)N=C(c2cnc3c(F)c(F)ccc3c2)S1 (stereo not drawn) [E.11, 4-[(3-chloropyrazol-1-yl)methyl]-2-(7,8-difluoro-3-quinolyl)-6,6-dimethyl-4,5-dihydro-1,3-thiazine] | ≥ 80 | ≥ 80 | – | ≥ 80 | –
11 | CC1(C)CC(Cn2ccc(C(F)F)n2)N=C(c2cnc3c(F)c(F)ccc3c2)S1 (stereo not drawn) [E.12, 4-[[3-(difluoromethyl)pyrazol-1-yl]methyl]-2-(7,8-difluoro-3-quinolyl)-6,6-dimethyl-4,5-dihydro-1,3-thiazine] | ≥ 80 | ≥ 80 | – | ≥ 80 | –
12 | CC1(C)CC(Cc2cscn2)N=C(c2cnc3c(F)c(F)ccc3c2)O1 (stereo not drawn) [E.13, 2-(7,8-difluoro-3-quinolyl)-6,6-dimethyl-4-(thiazol-4-ylmethyl)-4,5-dihydro-1,3-oxazine] | ≥ 80 | ≥ 80 | – | ≥ 80 | –
13 | CC1(C)CC(Cc2nccs2)N=C(c2cnc3c(F)c(F)ccc3c2)S1 (stereo not drawn) [E.14, 2-(7,8-difluoro-3-quinolyl)-6,6-dimethyl-4-(thiazol-2-ylmethyl)-4,5-dihydro-1,3-thiazine] | ≥ 80 | ≥ 80 | – | ≥ 80 | –
14 | CC1(C)CC(Cc2nccs2)N=C(c2cnc3c(F)c(F)ccc3c2)O1 (stereo not drawn) [E.15, 2-(7,8-difluoro-3-quinolyl)-6,6-dimethyl-4-(thiazol-2-ylmethyl)-4,5-dihydro-1,3-oxazine] | ≥ 80 | ≥ 80 | – | ≥ 80 | 105 to 113
15 | CC1(C)CC(Cc2cncs2)N=C(c2cnc3c(F)c(F)ccc3c2)S1 (stereo not drawn) [E.16, 2-(7,8-difluoro-3-quinolyl)-6,6-dimethyl-4-(thiazol-5-ylmethyl)-4,5-dihydro-1,3-thiazine] | ≥ 80 | ≥ 80 | – | ≥ 80 | –
16 | CC1(C)CC(Cn2cc(F)cn2)N=C(c2cnc3c(F)c(F)ccc3c2)S1 (stereo not drawn) [E.17, 2-(7,8-difluoro-3-quinolyl)-4-[(4-fluoropyrazol-1-yl)methyl]-6,6-dimethyl-4,5-dihydro-1,3-thiazine] | ≥ 80 | ≥ 80 | – | – | –
17 | CC1(C)CC(Cn2cc(C(F)(F)F)cn2)N=C(c2cnc3c(F)c(F)ccc3c2)S1 (stereo not drawn) [E.18, 2-(7,8-difluoro-3-quinolyl)-6,6-dimethyl-4-[[4-(trifluoromethyl)pyrazol-1-yl]methyl]-4,5-dihydro-1,3-thiazine] | ≥ 80 | – | – | – | –
18 | CC1(C)CC(Cc2cncs2)N=C(c2cnc3c(F)c(F)ccc3c2)O1 (stereo not drawn) [E.19, 2-(7,8-difluoro-3-quinolyl)-6,6-dimethyl-4-(thiazol-5-ylmethyl)-4,5-dihydro-1,3-oxazine] | ≥ 80 | ≥ 80 | – | – | 122 to 127
19 | CC1(C)CC(Cc2cccnc2)N=C(c2cnc3c(F)cccc3c2)S1 (stereo not drawn) [E.20, 2-(8-fluoro-3-quinolyl)-6,6-dimethyl-4-(3-pyridylmethyl)-4,5-dihydro-1,3-thiazine] | – | – | – | ≥ 80 | –
20 | CC1(C)CC(Cc2cccnc2)N=C(c2cnc3c(F)cccc3c2)O1 (stereo not drawn) [E.22, 2-(8-fluoro-3-quinolyl)-6,6-dimethyl-4-(3-pyridylmethyl)-4,5-dihydro-1,3-oxazine] | ≥ 80 | ≥ 80 | – | – | –
21 | CC1(C)CC(Cc2ccsc2)N=C(c2cnc3c(F)cccc3c2)S1 (stereo not drawn) [E.23, 2-(8-fluoro-3-quinolyl)-6,6-dimethyl-4-(3-thienylmethyl)-4,5-dihydro-1,3-thiazine] | ≥ 80 | ≥ 80 | ≥ 80 | – | –
22 | CC1(C)CC(Cc2ccc(F)nc2)N=C(c2cnc3c(F)c(F)ccc3c2)S1 (stereo not drawn) [E.24, 2-(7,8-difluoro-3-quinolyl)-4-[(6-fluoro-3-pyridyl)methyl]-6,6-dimethyl-4,5-dihydro-1,3-thiazine] | ≥ 80 | ≥ 80 | ≥ 80 | – | –
23 | CC1(C)CC(Cc2ccsc2)N=C(c2cnc3c(F)c(F)ccc3c2)[S+]1[O-] (stereo not drawn) [E.25, 2-(7,8-difluoro-3-quinolyl)-6,6-dimethyl-4-(3-thienylmethyl)-4,5-dihydro-1,3-thiazine 1-oxide] | ≥ 80 | – | ≥ 80 | – | –
24 | CC1(C)CC(Cc2ccncc2)N=C(c2cnc3c(F)c(F)ccc3c2)S1 (stereo not drawn) [E.26, 2-(7,8-difluoro-3-quinolyl)-6,6-dimethyl-4-(4-pyridylmethyl)-4,5-dihydro-1,3-thiazine] | ≥ 80 | ≥ 80 | – | – | –
